Test results as given in US11713470B2, “Targeted gene therapies for pain and other neuro-related disorders” (University of Pittsburgh—Of the Commonwealth System of …, priority 2017, dated 2023).
“Also recorded” adds a separate entry of the source.

Legend:
Assay type in all cases: in vivo, mouse
[1] = biological target: T1, PSAM4 in dorsal horn CCK+ neurons (Homo sapiens, UniProt P23415+P36544, L131G/Q139L/Y217F); test: Baseline mechanical and heat sensitivity in mice injected with AAV8 mCCK-PSAM4 virus; details: 0.3 mpk i.p., 2 weeks after AAV8 mCCK-PSAM4, 30-60 minutes after drug
Protocol: (§1) The mouse cholecystokinin (CCK) promoter with an added chimeric intron to drive expression of α7^L131G, Q139L, Y217F GlyR (PSAM4) was packaged into AAV2/8 and injected into the dorsal horn of 3-week-old wildtype C57Bl/6 male and female mice. Injection of AAV into the dorsal horn was performed as described previously (Peirs, C. et al. Dorsal Horn Circuits for Persistent Mechanical Pain. Neuron 87, 797-812 (2015)). See FIG. 11 for a schematic of the plasmid used to produce these rAAV particles. Briefly, a 2.5 kb fragment of the mouse CCK promoter was subcloned upstream of the PSAM4 gene with the chimeric intron (135 bp) located in between.
(§2) Mechanical and heat hypersensitivity was tested in adult wildtype male and female C57Bl/6 mice (not injected with mCCK-PSAM4 virus) before and after intraperitoneal injection of (i.p) varenicline (0.1 milligram per kilogram (mpk) (FIG. 13). We also tested these parameters before and 2-5 days after induction of the complete Freund's adjuvant (CFA)-model of inflammatory pain and 7 days after induction of the sural version of the spared nerve injury (SNI) model of neuropathic pain (FIG. 13). Sensitivity to mechanical stimuli was tested by measuring the paw withdrawal threshold to von Frey filaments (PWT) and the paw withdrawal response to a cotton swab (percentage of response) as described previously (Peirs, C. et al. Dorsal Horn Circuits for Persistent Mechanical Pain. Neuron 87, 797-812 (2015)). Heat sensitivity was tested by measuring the withdrawal latency to a radiant heat source using the Hargreaves apparatus (PWL) as described previously (Peirs, C. et al. Dorsal Horn Circuits for Persistent Mechanical Pain. Neuron 87, 797-812 (2015)).
Mice were injected unilaterally in the dorsal horn with AAV8 mCCK-PSAM4 virus and tested two weeks later. […] The ipsilateral plantar hindpaw of the mice was injected with CFA and PWTs and response frequencies tested 3 days later in the absence and presence of varenicline (0.3 mpk, i.p.).

[2] = biological target: T1, PSAM4 in dorsal horn CCK+ neurons; test: Sural-SNI-induced mechanical allodynia in mice expressing mCCK-PSAM4 in the dorsal horn; details: 0.3 mpk i.p., 7 days after sural-SNI
Protocol: as §1, with “between. […]” for “between.”

[3] = biological target: T1, PSAM4 in dorsal horn CCK+ neurons; test: CFA-induced mechanical allodynia in mice expressing mCCK-PSAM4 in the dorsal horn; details: 0.3 mpk i.p., 3 days after CFA
Protocol: as §1, with “between. […]” for “between.”

mice lacking PSAM4 = test: Mechanical and heat sensitivity at baseline and after CFA or sural-SNI in wildtype C57Bl/6 mice lacking PSAM4; details: 0.1 mpk i.p.
Protocol: as §2

[4] = uninjured mice without PSAM4, 30-60 minutes after injection

T1 sequence (P36544+P23415 fused P36544:L131G/P36544:Q139L/P36544:Y217F): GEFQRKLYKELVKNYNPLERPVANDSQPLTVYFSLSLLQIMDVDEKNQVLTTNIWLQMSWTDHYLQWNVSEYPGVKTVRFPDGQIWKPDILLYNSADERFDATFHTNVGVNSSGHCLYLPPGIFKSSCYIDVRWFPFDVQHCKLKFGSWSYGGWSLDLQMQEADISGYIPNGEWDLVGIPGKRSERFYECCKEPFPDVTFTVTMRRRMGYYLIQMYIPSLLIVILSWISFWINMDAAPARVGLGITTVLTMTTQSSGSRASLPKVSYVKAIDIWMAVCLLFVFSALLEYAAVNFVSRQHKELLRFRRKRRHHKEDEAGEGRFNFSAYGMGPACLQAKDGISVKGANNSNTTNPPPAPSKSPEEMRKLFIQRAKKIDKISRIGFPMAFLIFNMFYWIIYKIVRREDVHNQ

c1cnc2cc3c(cc2n1)[C@@H]1CNC[C@H]3C1 [varenicline]
baseline PWL [1]: no effect; also recorded: did not alter
baseline PWT [1]: no effect; also recorded: did not alter
baseline percentage response (response frequency to cotton swab) [1]: no effect; also recorded: did not alter
PWT to von Frey filaments after sural-SNI [2]: markedly reversed
PWT to von Frey filaments after CFA [3]: markedly reversed
response frequency to cotton swab after CFA [3]: markedly reversed
heat hypersensitivity after CFA (mice lacking PSAM4; mice without PSAM4, 2 days after CFA): no effect
mechanical hypersensitivity after CFA (mice lacking PSAM4; mice without PSAM4, 3 days after CFA): no effect
mechanical or heat hypersensitivity after sural-SNI (mice lacking PSAM4; mice without PSAM4, 7 days after sural-SNI): no effect
baseline PWL (withdrawal latency, Hargreaves) (mice lacking PSAM4; [4]): no effect
baseline PWT (paw withdrawal threshold to von Frey filaments) (mice lacking PSAM4; [4]): no effect
baseline response frequency to cotton swab (mice lacking PSAM4; [4]): no effect
